Assay results taken from the CheMixHub viscosity set.
± gives the uncertainty stated by the source.

Test: xn = mol fraction of the nth substance listed

Cl[Si](Cl)(Cl)Cl + COCOC
303.1 K, 101 kPa
Conditions | viscosity [mPa·s]
x2 = 0.0989 | 0.419 ± 0.017
x2 = 0.1906 | 0.412 ± 0.017
x2 = 0.2879 | 0.402 ± 0.017
x2 = 0.3682 | 0.405 ± 0.017
x2 = 0.3933 | 0.41 ± 0.017
x2 = 0.4424 | 0.414 ± 0.017
x2 = 0.5106 | 0.428 ± 0.018
x2 = 0.596 | 0.458 ± 0.019
x2 = 0.6589 | 0.472 ± 0.019
x2 = 0.7083 | 0.461 ± 0.019
x2 = 0.7984 | 0.434 ± 0.018
x2 = 0.8477 | 0.414 ± 0.017
x2 = 0.9026 | 0.369 ± 0.016

CCC#N + CS(C)=O
viscosity [mPa·s]
Conditions | 298.15 K | 303.15 K | 308.15 K | 313.15 K | 318.15 K | 323.15 K
101 kPa, x2 = 0.1078 | 0.49 ± 0.01 | 0.47 ± 0.01 | 0.44 ± 0.01 | 0.43 ± 0.01 | 0.4 ± 0.01 | 0.35 ± 0.01
101 kPa, x2 = 0.2092 | 0.56 ± 0.01 | 0.54 ± 0.01 | 0.51 ± 0.01 | 0.48 ± 0.01 | 0.46 ± 0.01 | 0.4 ± 0.01
101 kPa, x2 = 0.3026 | 0.63 ± 0.01 | 0.6 ± 0.01 | 0.57 ± 0.01 | 0.55 ± 0.01 | 0.52 ± 0.01 | 0.45 ± 0.01
101 kPa, x2 = 0.3983 | 0.72 ± 0.02 | 0.69 ± 0.02 | 0.65 ± 0.01 | 0.62 ± 0.01 | 0.6 ± 0.01 | 0.51 ± 0.01
101 kPa, x2 = 0.4995 | 0.85 ± 0.02 | 0.81 ± 0.02 | 0.75 ± 0.02 | 0.71 ± 0.02 | 0.68 ± 0.02 | 0.58 ± 0.01
101 kPa, x2 = 0.6026 | 1.01 ± 0.02 | 0.96 ± 0.02 | 0.89 ± 0.02 | 0.84 ± 0.02 | 0.79 ± 0.02 | 0.68 ± 0.02
101 kPa, x2 = 0.7077 | 1.2 ± 0.03 | 1.12 ± 0.02 | 1.04 ± 0.02 | 0.98 ± 0.02 | 0.92 ± 0.02 | 0.78 ± 0.02
101 kPa, x2 = 0.7966 | 1.39 ± 0.03 | 1.29 ± 0.03 | 1.2 ± 0.03 | 1.1 ± 0.02 | 1.05 ± 0.02 | 0.89 ± 0.02
101 kPa, x2 = 0.9014 | 1.67 ± 0.04 | 1.54 ± 0.03 | 1.4 ± 0.03 | 1.31 ± 0.03 | 1.23 ± 0.03 | 1.03 ± 0.02
101.33 kPa, x1 = 0.1009 | – | 1.547 ± 0.0093 | – | – | – | –
101.33 kPa, x1 = 0.202 | – | 1.322 ± 0.0081 | – | – | – | –
101.33 kPa, x1 = 0.3031 | – | 1.12 ± 0.007 | – | – | – | –
101.33 kPa, x1 = 0.4043 | – | 0.9436 ± 0.006 | – | – | – | –
101.33 kPa, x1 = 0.499 | – | 0.8012 ± 0.0053 | – | – | – | –
101.33 kPa, x1 = 0.6002 | – | 0.6745 ± 0.0047 | – | – | – | –
101.33 kPa, x1 = 0.7153 | – | 0.5619 ± 0.0042 | – | – | – | –
101.33 kPa, x1 = 0.798 | – | 0.4937 ± 0.0039 | – | – | – | –
101.33 kPa, x1 = 0.8994 | – | 0.4328 ± 0.0036 | – | – | – | –
